From patent US12486290B2, “Isoindolinone and indazole compounds for the degradation of EGFR” (C4 THERAPEUTICS, INC., priority 2019, dated 2025) come the findings set out here.

Experiment [1] addresses T1, EGFR L858R (NCI-H3255 cells) (Homo sapiens, UniProt P00533, L858R).
T1 construct: NCI-H3255 (harboring EGFR heterozygous L858R mutation); host or cells: NCI-H3255
Kind of experiment: EGFR (L858R) degradation analysis, Total EGFR (L858R) HTRF, NCI-H3255 cells. The following applies: 6 hours. The format is cell-based. From the text: NCI-H1975 (harboring EGFR heterozygous T790M/L858R mutations) and NCI-H3255 (harboring EGFR heterozygous L858R mutation) were purchased from ATCC and NCI, respectively. NCI-H1975+CS (harboring EGFR heterozygous T/790M/L858R/C797S mutations) was generated using CRISPR technology to introduce the additional C797S mutation by Horizon Discovery. RPMI 1640 no-phenol red medium and fetal bovine serum (FBS) were purchased from Gibco (Grand Island, NY, USA). Cell culture flasks and 384-well microplates were acquired from VWR (Radnor, PA, USA). Total EGFR (L858R) HTRF assay kits were purchased from Cisbio (Bedford, MA, USA).
Degradation of EGFR protein containing L858R mutation was determined based on quantification of FRET signal using Total EGFR (L858R) HTRF assay kit. Test compounds were added to the 384-well plate from a top concentration of 10 μM with 11 points, half log titration in duplicates. NCI-H1975, NCI-H1975+CS or NCI-H3255 cells were added into 384-well plates at a cell density of 10000, 10000 or 1000 cells per well, respectively. The plates were kept at 37° C. with 5% CO2 for 6 hours. Cells treated in the absence of the test compound were the negative control. Positive control was set by wells containing all reagents but no cells. FRET signal was acquired on EnVision™ Multilabel Reader (PerkinElmer, Santa Clara, CA, USA).
In general terms: Time-resolved FRET reads energy transfer from a long-lived donor to a nearby acceptor.

For experiment [2], the target named is T2, EGFR T790M/L858R (NCI-H1975 cells) (Homo sapiens, UniProt P00533, L858R/T790M).
T2 construct: NCI-H1975 (harboring EGFR heterozygous T790M/L858R mutations); host or cells: NCI-H1975
T2 sequence (P00533 25-1210 T790M/L858R): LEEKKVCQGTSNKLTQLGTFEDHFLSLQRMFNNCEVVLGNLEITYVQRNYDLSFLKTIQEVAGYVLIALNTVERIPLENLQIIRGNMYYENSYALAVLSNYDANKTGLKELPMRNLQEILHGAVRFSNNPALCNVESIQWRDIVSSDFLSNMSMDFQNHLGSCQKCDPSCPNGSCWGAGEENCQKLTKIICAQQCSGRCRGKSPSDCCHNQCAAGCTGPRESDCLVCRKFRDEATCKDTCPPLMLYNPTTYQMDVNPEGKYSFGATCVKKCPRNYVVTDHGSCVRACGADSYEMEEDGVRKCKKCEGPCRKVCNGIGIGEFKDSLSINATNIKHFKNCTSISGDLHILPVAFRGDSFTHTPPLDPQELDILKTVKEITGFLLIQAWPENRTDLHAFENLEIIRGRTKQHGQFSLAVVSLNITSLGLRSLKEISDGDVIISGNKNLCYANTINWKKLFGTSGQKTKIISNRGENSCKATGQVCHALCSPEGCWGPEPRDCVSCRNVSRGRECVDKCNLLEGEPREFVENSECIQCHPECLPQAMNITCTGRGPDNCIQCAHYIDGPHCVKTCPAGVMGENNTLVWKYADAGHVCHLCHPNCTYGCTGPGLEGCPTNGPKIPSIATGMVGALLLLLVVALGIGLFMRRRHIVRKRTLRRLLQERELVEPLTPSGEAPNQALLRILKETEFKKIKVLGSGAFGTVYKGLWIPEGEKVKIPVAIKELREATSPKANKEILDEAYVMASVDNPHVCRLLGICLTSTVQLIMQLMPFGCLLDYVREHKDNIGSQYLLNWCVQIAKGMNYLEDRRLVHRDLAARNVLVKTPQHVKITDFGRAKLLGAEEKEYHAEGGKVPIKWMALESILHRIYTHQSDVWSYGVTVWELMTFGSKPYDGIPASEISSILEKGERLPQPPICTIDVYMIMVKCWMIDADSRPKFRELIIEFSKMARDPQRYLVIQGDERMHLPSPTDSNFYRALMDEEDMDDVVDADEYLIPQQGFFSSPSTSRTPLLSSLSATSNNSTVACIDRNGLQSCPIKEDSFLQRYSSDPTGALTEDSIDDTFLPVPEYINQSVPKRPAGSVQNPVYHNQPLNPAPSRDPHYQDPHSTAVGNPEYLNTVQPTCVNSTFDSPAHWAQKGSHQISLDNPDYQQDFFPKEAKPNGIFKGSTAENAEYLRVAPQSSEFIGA
Kind of experiment: EGFR (L858R) degradation analysis, Total EGFR (L858R) HTRF, NCI-H1975 cells. It counts as cell-based. The following applies: 6 hours. The gist of the method:
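Cells (10000/well NCI-H1975 and NCI-H1975+CS, 1000/well NCI-H3255) treated with 11-point half-log titrations from 10 μM top, in duplicate, for 6 hours at 37° C., 5% CO2. Total EGFR (L858R) quantified by HTRF FRET; untreated cells as negative and cell-free wells as positive control.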

One may read the DC50 as the concentration at which degradation of the target reaches its halfway point. Read a high DC50 as degradation only at high concentration.

T1 sequence (P00533 25-1210 L858R): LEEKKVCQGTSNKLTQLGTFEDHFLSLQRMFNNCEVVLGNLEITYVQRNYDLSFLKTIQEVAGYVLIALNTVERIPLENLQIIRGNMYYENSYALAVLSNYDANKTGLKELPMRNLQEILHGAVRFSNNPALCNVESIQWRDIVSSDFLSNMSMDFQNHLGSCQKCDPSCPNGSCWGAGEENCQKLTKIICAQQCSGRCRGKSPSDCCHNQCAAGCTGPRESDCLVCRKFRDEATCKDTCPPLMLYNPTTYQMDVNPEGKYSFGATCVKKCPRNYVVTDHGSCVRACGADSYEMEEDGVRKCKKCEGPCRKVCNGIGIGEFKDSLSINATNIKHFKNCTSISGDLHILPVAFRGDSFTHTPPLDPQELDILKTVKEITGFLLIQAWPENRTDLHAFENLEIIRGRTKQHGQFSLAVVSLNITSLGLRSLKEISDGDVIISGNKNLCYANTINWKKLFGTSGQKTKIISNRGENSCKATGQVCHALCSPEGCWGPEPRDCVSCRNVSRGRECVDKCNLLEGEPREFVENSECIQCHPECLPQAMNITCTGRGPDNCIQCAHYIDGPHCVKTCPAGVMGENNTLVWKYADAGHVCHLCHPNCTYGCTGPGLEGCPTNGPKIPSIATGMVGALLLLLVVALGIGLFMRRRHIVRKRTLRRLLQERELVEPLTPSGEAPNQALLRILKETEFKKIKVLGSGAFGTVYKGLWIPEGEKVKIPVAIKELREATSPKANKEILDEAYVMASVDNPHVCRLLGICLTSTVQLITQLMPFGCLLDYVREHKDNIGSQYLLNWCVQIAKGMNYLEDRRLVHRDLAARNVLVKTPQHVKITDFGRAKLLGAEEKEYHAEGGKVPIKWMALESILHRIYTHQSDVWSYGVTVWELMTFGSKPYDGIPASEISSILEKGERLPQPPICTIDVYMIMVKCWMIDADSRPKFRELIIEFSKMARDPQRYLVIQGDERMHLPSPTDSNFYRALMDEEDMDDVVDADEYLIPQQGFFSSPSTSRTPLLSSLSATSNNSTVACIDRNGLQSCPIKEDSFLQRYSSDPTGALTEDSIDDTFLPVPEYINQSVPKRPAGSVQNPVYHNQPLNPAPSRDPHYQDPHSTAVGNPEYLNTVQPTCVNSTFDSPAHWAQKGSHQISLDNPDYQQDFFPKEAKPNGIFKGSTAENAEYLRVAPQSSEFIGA

Consider `O=C1CC[C@H](Nc2ccc(C3CCN(CC(=O)N4CCC(c5cnn(-c6cc(F)c7c(c6)C(=O)N(C(C(=O)Nc6nccs6)c6ncn8c6CCC8)C7)c5)CC4)CC3)cc2)C(=O)N1` (stereo partly drawn) [Compound 29, 2-(6,7-dihydro-5H-pyrrolo[1,2-c]imidazol-1-yl)-2-[6-[4-[1-[2-[4-[4-[[(3S)-2,6-dioxo-3-piperidyl]amino]phenyl]-1-piperidyl]acetyl]-4-piperidyl]pyrazol-1-yl]-4-fluoro-1-oxo-isoindolin-2-yl]-N-thiazol-2-yl-acetamide], for which the 50% degradation concentration (DC50) in experiment [1] is 20 nM; in experiment [2], 24 nM. Take `O=C1CC[C@H](Nc2ccc(C3CCN(CC(=O)N4CC5(CCN(c6ccc(-c7cc(F)c8c(c7)C(=O)N(C(C(=O)Nc7nccs7)c7ncn9c7CCC9)C8)cc6)CC5)C4)CC3)c(F)c2)C(=O)N1` (stereo partly drawn) [Compound 46, 2-(6,7-dihydro-5H-pyrrolo[1,2-c]imidazol-1-yl)-2-(6-(4-(2-(2-(4-(4-(((S)-2,6-dioxopiperidin-3-yl)amino)-2-fluorophenyl)piperidin-1-yl)acetyl)-2,7-diazaspiro[3.5]nonan-7-yl)phenyl)-4-fluoro-1-oxoisoindolin-2-yl)-N-(thiazol-2-yl)acetamide]: the DC50 in experiment [1] and in experiment [2] was 51 nM in each case. As to `Cn1nc(N2CCC(=O)NC2=O)c2ccc(C3CCN(CC(=O)N4CCN(c5ccc(-c6cc(F)c7c(c6)C(=O)N(C(C(=O)Nc6nccs6)c6ncn8c6C[C@@H](F)C8)C7)cc5)CC4)CC3)cc21` (stereo partly drawn) [Compound 45, 2-[6-[4-[4-[2-[4-[3-(2,4-dioxohexahydropyrimidin-1-yl)-1-methyl-indazol-6-yl]-1-piperidyl]acetyl]piperazin-1-yl]phenyl]-4-fluoro-1-oxo-isoindolin-2-yl]-2-[(6R)-6-fluoro-6,7-dihydro-5H-pyrrolo[1,2-c]imidazol-1-yl]-N-thiazol-2-yl-acetamide], the values for the DC50 in experiment [1] and in experiment [2] were 16 nM and 14 nM, respectively. The corresponding values for `O=C1CC[C@H](Nc2ccc(C3CCN(CC(=O)N4CCN(c5ccc(-c6cc(F)c7cn(C(C(=O)Nc8nccs8)c8ncn9c8CCC9)nc7c6)cn5)CC4)CC3)c(F)c2)C(=O)N1` (stereo partly drawn) [Compound 68, 2-(6,7-dihydro-5H-pyrrolo[1,2-c]imidazol-1-yl)-2-(6-(6-(4-(2-(4-(4-(((S)-2,6-dioxopiperidin-3-yl)amino)-2-fluorophenyl)piperidin-1-yl)acetyl)piperazin-1-yl)pyridin-3-yl)-4-fluoro-2H-indazol-2-yl)-N-(thiazol-2-yl)acetamide] are 34 nM and 28 nM. With `Cn1nc(N2CCC(=O)NC2=O)c2ccc(C3CCN(CC(=O)N4CCN(c5ccc(-c6cc(F)c7cn(C(C(=O)Nc8nccs8)c8ncn9c8CCC9)nc7c6)cn5)CC4)CC3)cc21` (centres unmarked) [Compound 67, 2-(6,7-dihydro-5H-pyrrolo[1,2-c]imidazol-1-yl)-2-[6-[6-[4-[2-[4-[3-(2,4-dioxohexahydropyrimidin-1-yl)-1-methyl-indazol-6-yl]-1-piperidyl]acetyl]piperazin-1-yl]-3-pyridyl]-4-fluoro-indazol-2-yl]-N-thiazol-2-yl-acetamide], the DC50 in experiment [1] was 50 nM; in experiment [2], 27 nM. For `O=C1CC[C@H](Nc2ccc(C3CCN(CC(=O)N4CC[C@@H](Oc5ccc(-c6cc(F)c7c(c6)C(=O)N(C(C(=O)Nc6nccs6)c6ncn8c6CCC8)C7)cc5)C4)CC3)cc2)C(=O)N1` (stereo partly drawn) [Compound 41, 2-(6,7-dihydro-5H-pyrrolo[1,2-c]imidazol-1-yl)-2-[6-[4-[(3R)-1-[2-[4-[4-[[(3S)-2,6-dioxo-3-piperidyl]amino]phenyl]-1-piperidyl]acetyl]pyrrolidin-3-yl]oxyphenyl]-4-fluoro-1-oxo-isoindolin-2-yl]-N-thiazol-2-yl-acetamide], the DC50 in experiment [2] is 26 nM. In other words, the double-digit nanomolar range.
